The test system of assay [1] is polyclonal antibody of the thiamethoxam immunoassay. The assay is described as follows: Cross reactivity of the thiamethoxam immunoassay (competitive enzyme immunoassay in antibody-coated tubes). The arrangement: key to Percent Reactivity Relative to Thiamethoxam: NR, non-reactive. The following applies: for Percent Reactivity Relative to Thiamethoxam: test substances in 1% methanol/water, 1000 to 0.01 ng/ml. It counts as binding. As for the experimental part: The antibody-coated polystyrene culture tubes are labeled and placed in the tube rack such that the first and last tubes are standards and the remaining standards and samples are mixed. Sample and standard solutions (0.50-ml) are added to the corresponding tubes. A similar volume of enzyme conjugate solution is added. The rack is gently shaken to mix the solutions and set to incubate for 20 min at room temperature. The contents of all tubes are removed by inverting the rack over a stainless steel pan. Each tube is washed to overflowing with distilled water. The rack is inverted over the sink to dump the wash water. Washing is repeated four times. Then the rack is inverted and tapped gently on a paper towel to remove most of the remaining wash. […] The rack is gently shaken at 2.5 min intervals to ensure the enzyme maintains an ample supply of substrate. Generation of the blue colored signal is terminated by addition of acidic stop solution (0.50-ml). The absorbance of the solution in each tube is measured spectrophotometrically at 450 nm.
The concentration of analyte in the samples is determined from a regression function in the form of y=m ln(x)+b.
The cross reactivity, or specificity, of the immunoassay is evaluated to determine if other test substances found in seed coatings would interfere with measurement of thiamethoxam. Test substances are dissolved in 1% methanol/water to concentrations ranging from 1000 to 0.01 ng/ml. Aliquots of each concentration are analyzed as described above. The reactivity of each test substance over this range is determined as previously described in Brady, J. F; Turner, J.; Skinner, D. H. “Application of a triasulfuron enzyme immunoassay to the analysis of incurred residues in soil and water samples.” J. Agric. Food Chem. 1995, 43:2542–2547.

Assay [2] has the same test system. As to the kind of experiment: Typical standard curve for the thiamethoxam immunoassay. The format is binding. As for the experimental part: A portion of the seed extract is diluted into 1% MeOH/H2O until the expected concentration of thiamethoxam is brought within range of the calibration curve, 0.5 to 120 parts per billion. Antibody-coated tubes are labeled and placed in a tube rack such that the first and last tubes are standards and the remaining standards and samples are intermixed. The tube rack grips each tube such that the rack may be inverted without loss of the tubes. An aliquot of a standard or sample (0.5 mL) is added to all corresponding tubes. Enzyme conjugate solution (0.5 mL) is added to all tubes. The rack is shaken gently to mix the contents of all tubes. Tubes are incubated for 20 min at room temperature. The rack is inverted to decant the contents of all tubes. Distilled H2O is added to all tubes to overflowing using a flip-top wash bottle and the wash is decanted. Tubes are washed an additional three times. After the final wash, the rack is inverted and the tubes are gently tapped upon a clean paper towel to remove excess wash. Enzyme substrate (0.5 mL) is added to all tubes which are incubated for 10 min at room temperature. The rack is shaken gently every 2.5 min during this incubation. Acidic stop solution (1 M HCl, 0.5 mL) is added to all tubes to terminate signal generation. […] The absorbances of the standards are used to construct a calibration curve, a regression function in the form of […]. The absorbance of each sample is inserted into the function to determine the concentration of the neonicotinoid pesticide in the diluted sample. The resulting concentration is multiplied by the dilution factor to calculate the amount of neonicotinoid pesticide in the original sample. The function describing the response of the thiamethoxam standards is generated by regression analysis.

`O=C1C2CC=CCC2C(=O)N1SC(Cl)(Cl)Cl` (stereo not drawn) [Captan]: in assay [1], the “Percent Reactivity Relative to Thiamethoxam” value is “NR”.
On to `CC1=C(C(=O)Nc2ccccc2)SCCO1` [Carboxin], for which the “Percent Reactivity Relative to Thiamethoxam” value in assay [1] is reported as “NR”.
Regarding `CCOP(=S)(OCC)Oc1nc(Cl)c(Cl)cc1Cl` [Chlorpyrifos], the “Percent Reactivity Relative to Thiamethoxam” value in assay [1] was “NR”.
Take `CN/C(=N\[N+](=O)[O-])NCc1cnc(Cl)s1` [Clothiadin]: in assay [1], the “Percent Reactivity Relative to Thiamethoxam” value is <1.0%.
The same measure, in the same setting: for `CC1COC(Cn2cncn2)(c2ccc(Oc3ccc(Cl)cc3)cc2Cl)O1` (stereo not drawn) [Difenoconazole] the value was “NR”.
With `N#Cc1c[nH]cc1-c1cccc2c1OC(F)(F)O2` [Fludioxonil], in assay [1], the “Percent Reactivity Relative to Thiamethoxam” value is recorded as “NR”.
Same read-out and setting: for `FC(F)(F)C(=NOCC1OCCO1)c1ccc(Cl)cc1` [Fluxofenim] the value was “NR”.
On the same count and under the same terms, to `O=[N+]([O-])NC1=NCCN1Cc1ccc(Cl)nc1` [Imidacloprid] belongs “^2NR”; to `COCC(=O)N(c1c(C)cccc1C)[C@H](C)C(=O)OC` [Mefenoxam (R-Metalaxyl), Mefenoxam], “NR”.
On the same count and under the same terms, to `COCC(=O)N(c1c(C)cccc1C)C(C)C(=O)OC` (stereo not drawn) [Metalaxyl] belongs “NR”; to `O=[N+]([O-])c1c(Cl)c(Cl)c(Cl)c(Cl)c1Cl` [Pentachloronitrobenzene], “NR”; to `CCN(CC)c1nc(C)cc(OP(=S)(OC)OC)n1` [Primifos-methyl], “NR”.
For `CCCCC(C#N)(Cn1cncn1)c1ccc(Cl)cc1` (stereo not drawn) [Systhane (Myclobutanil), Myclobutanil], the “Percent Reactivity Relative to Thiamethoxam” value in assay [1] is on record as “NR”.
On the same count and under the same terms, for `N#CSCSc1nc2ccccc2s1` [TCMTB] the value was “NR”.
Regarding `CN1COCN(Cc2cnc(Cl)s2)/C1=N\[N+](=O)[O-]` [Thiamethoxam], the “reactivity with the immunoassay (in words)” value in assay [1] (among the test substances analyzed) is “significantly reactive”. Besides, the “Percent Reactivity Relative to Thiamethoxam” value in assay [1] is 100%. For the same compound, the “Absorbance at 450 nm (Analytical response)” value is recorded as 1.3618 in assay [2] (Concentration of Thiamethoxam 0.5 Parts Per Billion), 1.0283 in assay [2] (Concentration of Thiamethoxam 3 Parts Per Billion), 0.6636 in assay [2] (Concentration of Thiamethoxam 20 Parts Per Billion) and 0.3145 in assay [2] (Concentration of Thiamethoxam 120 Parts Per Billion).
For the compound `COC(=O)NC(=S)Nc1ccccc1NC(=S)NC(=O)OC` [Thiophanate-methyl], in assay [1], the “Percent Reactivity Relative to Thiamethoxam” value was “NR”.

The values above are taken from patent publication US7148029B2, “Immunoassay for neonicotinyl insecticides” (Syngenta Crop Protection, Inc., priority 1999, dated 2006).
